Test results published in US9758492B2, “IDO inhibitors” (Bristol-Myers Squibb Company, priority 2013, dated 2017).

Key:
Human IDO1 = molecular target: T1, Human IDO1 (Homo sapiens, UniProt P14902); assay: IDO Kynurenine Assay with Human IDO1/HEK293 Cells; format: cell-based; details: read-out: HEK human IDO-1 (IC50)
T1 construct: expressed in transfected cells; host or cells: HEK293
How it was run: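 HEK293 cells stably expressing human IDO1, in phenol red-free RPMI/10% FBS, exposed to compound for 20 h at 37 °C. Stopped with 0.2% TCA (50 °C, 30 min); kynurenine in supernatant detected with Ehrlich reagent, absorbance 490 nm.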

IDO = IDO (Homo sapiens, UniProt P14902); assay: LLE_IDO_ABS_DR (IDO assay)
Chain of IDO (P14902 whole entry): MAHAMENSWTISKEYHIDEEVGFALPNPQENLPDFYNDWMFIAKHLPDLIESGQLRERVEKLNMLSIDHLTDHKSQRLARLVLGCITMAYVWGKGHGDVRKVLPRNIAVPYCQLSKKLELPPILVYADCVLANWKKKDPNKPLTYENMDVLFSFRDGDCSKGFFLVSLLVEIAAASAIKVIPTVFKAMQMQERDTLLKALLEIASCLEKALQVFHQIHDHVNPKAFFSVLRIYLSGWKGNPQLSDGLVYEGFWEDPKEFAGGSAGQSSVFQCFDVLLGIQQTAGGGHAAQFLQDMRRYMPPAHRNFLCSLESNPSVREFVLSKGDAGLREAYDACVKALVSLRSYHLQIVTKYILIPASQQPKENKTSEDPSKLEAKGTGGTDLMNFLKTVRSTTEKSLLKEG

T1 sequence (P14902 whole entry): as above

SMILES: Cc1ccc(NC(=O)Nc2cc(-c3ccccc3C(=O)O)cc(Cl)c2N(CC(C)C)CC(C)C)cc1 [Example 40, 3′-Chloro-4′-(diisobutylamino)-5′-(3-p-tolylureido)biphenyl-2-carboxylic acid]
- IC50 (Human IDO1): 10 nM
- IC50 (IDO): 3.79 nM

SMILES: Cc1ccc(NC(=O)Nc2cc(-c3cc(F)ccc3C(=O)O)cc(Cl)c2N(CC(C)C)CC(C)C)cc1 [Example 41, 3′-Chloro-4′-(diisobutylamino)-5-fluoro-5′-(3-p-tolylureido)biphenyl-2-carboxylic acid]
- IC50 (Human IDO1): 6.31 nM
- IC50 (IDO): 1.78 nM

SMILES: Cc1ccc(NC(=O)Nc2cc(-c3cc(F)ccc3C(=O)O)ccc2N(CC(C)C)CC(C)C)cc1 [Example 126, 4′-(diisobutylamino)-5-fluoro-3′-(3-p-tolylureido)biphenyl-2-carboxylic acid]
- IC50 (Human IDO1): 10 nM
- IC50 (IDO): 20 nM

SMILES: Cc1ccc(NC(=O)Nc2cc(-c3ccc(Cl)cc3C(=O)O)ccc2N(CC(C)C)CC(C)C)cc1 [Example 127, 4-chloro-4′-(diisobutylamino)-3′-(3-p-tolylureido) biphenyl-2-carboxylic acid]
- IC50 (Human IDO1): 80 nM
- IC50 (IDO): 130 nM

SMILES: Cc1ccc(NC(=O)Nc2cc(-c3cccc(F)c3C(=O)O)ccc2N(CC(C)C)CC(C)C)cc1 [Example 150, 4′-(diisobutylamino)-3-fluoro-3′-(3-p-tolylureido)biphenyl-2-carboxylic acid]
- IC50 (Human IDO1): 60 nM
- IC50 (IDO): 40 nM

SMILES: COCCN(Cc1ccc(Cl)cc1)c1ccc(-c2cc(F)ccc2C(=O)O)cc1NC(=O)Nc1ccc(C)cc1 [Example 193, 4′-((4-chlorobenzyl)(2-methoxyethyl)amino)-5-fluoro-3′-(3-(p-tolyl)ureido)-[1,1′-biphenyl]-2-carboxylic acid]
- IC50 (Human IDO1): 70 nM
- IC50 (IDO): 30 nM

SMILES: Cc1ccc(NC(=O)Nc2cc(-c3cc(F)ccc3C(=O)O)c(F)cc2N(CC(C)C)C2CCCCC2)cc1 [Example 231]
- IC50 (Human IDO1): 2.13 nM
- IC50 (IDO): 2.73 nM

SMILES: CC(C)CN(Cc1ccccc1)c1ccc(-c2ccccc2-c2nnn[nH]2)cc1NC(=O)Nc1ccc(OC(F)(F)F)cc1 [Example 290, 1-(4-(Benzyl(isobutyl)amino)-2′-(1H-tetrazol-5-yl)-[1,1′-biphenyl]-3-yl)-3-(4-(trifluoromethoxy)phenyl)urea]
- IC50 (Human IDO1): 50 nM
- IC50 (IDO): 30 nM

SMILES: CC(C)CN(Cc1ccccc1)c1ccc(-c2ccccc2-c2nnn[nH]2)cc1NC(=O)Nc1ccc(C2CC2)cc1 [Example 291, 1-(4-(Benzyl(isobutyl)amino)-2′-(1H-tetrazol-5-yl)-[1,1′-biphenyl]-3-yl)-3-(4-cyclopropylphenyl)urea]
- IC50 (Human IDO1): 1830 nM
- IC50 (IDO): 90 nM

SMILES: O=C(Nc1ccc(C2CC2)cc1)Nc1cc(-c2ccccc2-c2nnn[nH]2)ccc1N(CCC(F)(F)F)Cc1ccc(F)cc1C(F)(F)F [Example 299, 1-(4-cyclopropylphenyl)-3-(4-((4-fluoro-2-(trifluoromethyl)benzyl) (3,3,3-trifluoropropyl)amino)-2′-(1H-tetrazol-5-yl)-[1,1′-biphenyl]-3-yl)urea]
- IC50 (Human IDO1): 50 nM
- IC50 (IDO): 20 nM

SMILES: O=C(Nc1ccc(C(F)(F)F)cc1F)Nc1cc(-c2ccccc2-c2nnn[nH]2)ccc1N(CCC(F)(F)F)Cc1ccc(OC(F)(F)F)cc1 [Example 301, 1-(2′-(1H-tetrazol-5-yl)-4-((4-(trifluoromethoxy)benzyl)(3,3,3-trifluoropropyl)amino)-[1,1′-biphenyl]-3-yl)-3-(2-fluoro-4-(trifluoromethyl)phenyl)urea]
- IC50 (Human IDO1): 7.87 nM
- IC50 (IDO): 2.85 nM

SMILES: O=C(Nc1ccc(C2CC2)cc1)Nc1cc(-c2ccccc2-c2nnn[nH]2)ccc1N(CCC(F)(F)F)Cc1ccc(OC(F)(F)F)cc1 [Example 302, 1-(2′-(1H-tetrazol-5-yl)-4-((4-(trifluoromethoxy)benzyl)(3,3,3-trifluoropropyl)amino)-[1,1′-biphenyl]-3-yl)-3-(4-cyclopropylphenyl)urea]
- IC50 (Human IDO1): 5.53 nM
- IC50 (IDO): 3.26 nM

SMILES: O=C(Nc1ccc(C(F)(F)F)cc1F)Nc1cc(-c2ccccc2-c2nnn[nH]2)ccc1N(CCC(F)(F)F)Cc1ccccn1 [Example 303, 1-(2-fluoro-4-(trifluoromethyl)phenyl)-3-(4-((pyridin-2-ylmethyl)(3,3,3-trifluoropropyl)amino)-2′-(1H-tetrazol-5-yl)-[1,1′-biphenyl]-3-yl)urea]
- IC50 (Human IDO1): 280 nM
- IC50 (IDO): 50 nM

SMILES: Cc1ccc(NC(=O)Nc2cc(-c3ccccc3-c3nnn[nH]3)ccc2N2CC3CC2CN3Cc2ccccc2)cc1 (centres unmarked) [Example 317, 1-(4-(5-benzyl-2,5-diazabicyclo[2.2.1]heptan-2-yl)-2′-(1H-tetrazol-5-yl)-[1,1′-biphenyl]-3-yl)-3-(p-tolyl)urea]
- IC50 (Human IDO1): 50 nM
- IC50 (IDO): 30 nM

SMILES: O=C(Nc1ccc(F)cc1F)Nc1cc(-c2ccccc2-c2nnn[nH]2)ccc1N(CCCC(F)(F)F)Cc1ccc(Cl)cc1 [Example 319, 1-(4-((4-chlorobenzyl)(4,4,4-trifluorobutyl)amino)-2′-(1H-tetrazol-5-yl)-[1,1′-biphenyl]-3-yl)-3-(2,4-difluorophenyl) urea]
- IC50 (Human IDO1): 20 nM
- IC50 (IDO): 20 nM

SMILES: O=C(Nc1ccc(OC(F)(F)F)cc1)Nc1cc(-c2ccccc2-c2nnn[nH]2)ccc1N(CCCC(F)(F)F)Cc1ccc(Cl)cc1 [Example 322, 1-(4-((4-chlorobenzyl)(4,4,4-trifluorobutyl)amino)-2′-(1H-tetrazol-5-yl)-[1,1′-biphenyl]-3-yl)-3-(4-(trifluoromethoxy)phenyl)urea]
- IC50 (Human IDO1): 220 nM
- IC50 (IDO): 60 nM

SMILES: O=C(Nc1ccc(F)cc1F)Nc1cc(-c2ccccc2-c2nnn[nH]2)ccc1N(CCc1ccccc1)CCC(F)(F)F [Example 332, 1-(2,4-difluorophenyl)-3-(4-(phenethyl(3,3,3-trifluoropropyl)amino)-2′-(1H-tetrazol-5-yl)-[1,1′-biphenyl]-3-yl) urea]
- IC50 (Human IDO1): 110 nM
- IC50 (IDO): 80 nM

SMILES: O=C(Nc1ccc(F)cc1F)Nc1cc(-c2ccccc2-c2nnn[nH]2)ccc1N(CCC(F)(F)F)Cc1ccc(F)cc1C(F)(F)F [Example 340, 1-(2,4-difluorophenyl)-3-(4-((4-fluoro-2-(trifluoromethyl)benzyl) (3,3,3-trifluoropropyl)amino)-2′-(1H-tetrazol-5-yl)-[1,1′-biphenyl]-3-yl)urea]
- IC50 (Human IDO1): 40 nM
- IC50 (IDO): 30 nM

SMILES: Cc1ccc(NC(=O)Nc2cc(-c3ccccc3-c3nnn[nH]3)ccc2N(CCC(F)(F)F)Cc2ccc(OC(F)(F)F)cc2)cc1 [Example 341, 1-(2′-(1H-tetrazol-5-yl)-4-((4-(trifluoromethoxy)benzyl)(3,3,3-trifluoropropyl)amino)-[1,1′-biphenyl]-3-yl)-3-(p-tolyl)urea]
- IC50 (Human IDO1): 0.845 nM
- IC50 (IDO): 1.73 nM

SMILES: O=C(Nc1ccc(F)cc1F)Nc1cc(-c2ccccc2-c2nnn[nH]2)ccc1N(CCC(F)(F)F)Cc1ccccn1 [Example 344, 1-(2,4-difluorophenyl)-3-(4-((pyridin-2-ylmethyl)(3,3,3-trifluoropropyl)amino)-2′-(1H-tetrazol-5-yl)-[1,1′-biphenyl]-3-yl) urea]
- IC50 (Human IDO1): 50 nM
- IC50 (IDO): 30 nM

SMILES: O=C(Nc1ccc(C2CC2)cc1)Nc1cc(-c2ccccc2-c2nn[nH]n2)ccc1N1CC2CC1CN2Cc1ccccc1 (centres unmarked) [Example 348, 1-(4-(5-benzyl-2,5-diazabicyclo[2.2.1]heptan-2-yl)-2′-(2H-tetrazol-5-yl)-[1,1′-biphenyl]-3-yl)-3-(4-cyclopropylphenyl)urea]
- IC50 (Human IDO1): 10 nM
- IC50 (IDO): 10 nM

SMILES: O=C(Nc1ccc(C2CC2)cc1)Nc1cc(-c2ccccc2-c2nnn[nH]2)ccc1N(CCCC(F)(F)F)Cc1ccc(Cl)cc1 [Example 349, 1-(4-((4-chlorobenzyl)(4,4,4-trifluorobutyl)amino)-2′-(1H-tetrazol-5-yl)-[1,1′-biphenyl]-3-yl)-3-(4-cyclopropylphenyl)urea]
- IC50 (Human IDO1): 130 nM
- IC50 (IDO): 7.49 nM

SMILES: O=C(Nc1ccc(C2CC2)c(F)c1)Nc1cc(-c2ccccc2-c2nnn[nH]2)ccc1N(CCC(F)(F)F)Cc1ccc(F)cc1C(F)(F)F [Example 352, 1-(4-cyclopropyl-3-fluorophenyl)-3-(4-((4-fluoro-2-(trifluoro-methyl)benzyl) (3,3,3-trifluoropropyl)amino)-2′-(1H-tetrazol-5-yl)-[1,1′-biphenyl]-3-yl)urea]
- IC50 (Human IDO1): 220 nM
- IC50 (IDO): 90 nM

SMILES: O=C(Nc1ccc(C2CC2)c(F)c1)Nc1cc(-c2ccccc2-c2nnn[nH]2)ccc1N(CCC(F)(F)F)Cc1ccc(OC(F)(F)F)cc1 [Example 353, 1-(2′-(1H-tetrazol-5-yl)-4-((4-(trifluoromethoxy)benzyl)(3,3,3-trifluoro-propyl)amino)-[1,1′-biphenyl]-3-yl)-3-(4-cyclopropyl-3-fluorophenyl)urea]
- IC50 (Human IDO1): 2.37 nM
- IC50 (IDO): 5.1 nM

SMILES: Cc1ccc(NC(=O)Nc2cc(-c3cc(F)ccc3-c3nnn[nH]3)c(F)cc2N(CC(C)C)C2CCCCC2)cc1 [Example 355, 1-(4-(cyclohexyl(isobutyl)amino)-5′,6-difluoro-2′-(1H-tetrazol-5-yl)-[1,1′-biphenyl]-3-yl)-3-(p-tolyl)urea]
- IC50 (Human IDO1): 3.29 nM
- IC50 (IDO): 2.37 nM

SMILES: C=CC(c1ccccc1)c1cc(-c2ccccc2-c2nnn[nH]2)cc(NC(=O)Nc2ccccc2F)c1NCC(C)C (centres unmarked) [Example 357, 1-(2-fluorophenyl)-3-(4-(isobutylamino)-5-(1-phenylallyl)-2′-(1H-tetrazol-5-yl)-[1,1′-biphenyl]-3-yl)urea]
- IC50 (Human IDO1): 320 nM
- IC50 (IDO): 40 nM

SMILES: C=CC(c1ccccc1)c1cc(-c2ccccc2-c2nnn[nH]2)cc(NC(=O)Nc2ccc(C)cc2)c1NCC(C)C (centres unmarked) [Example 358, 1-(4-(isobutylamino)-5-(1-phenylallyl)-2′-(1H-tetrazol-5-yl)-[1,1′-biphenyl]-3-yl)-3-(p-tolyl)urea]
- IC50 (Human IDO1): 350 nM
- IC50 (IDO): 20 nM

SMILES: Cc1ccc(NC(=O)Nc2cc(-c3ccccc3-c3nnn[nH]3)ccc2N2CCCc3ccccc32)cc1 [Example 361, 1-(4-(3,4-Dihydroquinolin-1(2H)-yl)-2′-(1H-tetrazol-5-yl)-[1,1′-biphenyl]-3-yl)-3-(p-tolyl)urea]
- IC50 (Human IDO1): 220 nM
- IC50 (IDO): 110 nM
